Measurements as given in patent US20040097408A1, “Compounds regulating cell proliferation and differentiation” (priority 2001, published 2004).

Tests used:
A6 cells = assay: effect of FCCP and valinomycin on F16 accumulation in mitochondria; format: cell-based, mouse; details: F16 3 μM
Method: In order to test the contribution of the mitochondrial membrane potential (ΔΨm) to the accumulation of F16 in mitochondria, the effect of FCCP, an uncoupler of mitochondrial respiration, and the effect of valinomycin, a potassium ionosphore, were tested.
The effect of the protonophore FCCP on F16 accumulation was performed as previously done for the colocalization experiments described above. EpH4-A6 cells preincubated with F16 (3 μM) were subsequently treated with 5 μM FCCP. Images were acquired immediately before, 1 min and 5 min after FCCP addition and visulized under 40× magnification.

control EpH4-EV cells = assay: cytoblot of QR on normal cells; format: cell-based, mouse
From the text: (§1) The compound was included in cytoblot experiments, as described above, on the following cells: EpH4-A6 and control EpH4-EV cells and the following human breast cancer cell lines: FKBR3 (Neu positive cells); MDA-MD-468 (which over-express EGFR); and MCF-7 (which over-express Her3/ErbB3; EGFR and Neu).

[1] = system: mitochondria of cancer cells; assay: accumulation of QR in mitochondria; format: cell-based
[2] = system: EpH4-A6, FKBR3, MDA-MD-468 and MCF-7 cells; assay: cytoblot of QR on transformed cells; format: cell-based
From the text: as §1

Row | Compound | effect of preincubation on F16 entry and accumulation in mitochondria (A6 cells) | concentration inhibiting normal cells (control EpH4-EV cells) [µM] | accumulation in mitochondria [1] | proliferation of transformed cells at 10 nM ([2]; 10 nM) | proliferation of transformed cells at 100 nM ([2]; 100 nM) | concentration inhibiting proliferation of transformed cells (as low as) ([2]; all of the transformed cells tested) [nM]
1 | N#CC(C#N)=NNc1ccc(OC(F)(F)F)cc1 [FCCP] | retarded the entry and greatly reduced the overall accumulation of F16 inside mitochondria | – | – | – | – | –
2 | CC[n+]1c(/C=C/c2ccc(N(C)C)cc2)ccc2ccccc21 [QR, Quinaldine Red] | – | ≥ 10 | accumulate in mitochondria of cancer cells and essentially not in mitochondria of normal cells | partially inhibited | essentially completely inhibited | 10
3 | CC(C)[C@@H]1NC(=O)[C@H](C)OC(=O)[C@@H](C(C)C)NC(=O)[C@@H](C(C)C)OC(=O)[C@H](C(C)C)NC(=O)[C@H](C)OC(=O)[C@@H](C(C)C)NC(=O)[C@@H](C(C)C)OC(=O)[C@H](C(C)C)NC(=O)[C@H](C)OC(=O)[C@@H](C(C)C)NC(=O)[C@@H](C(C)C)OC1=O [valinomycin] | retarded the entry and greatly reduced the overall accumulation of F16 inside mitochondria | – | – | – | – | –
